System: S. faecalis
Assay: mice infected intraperitoneally, dosed 1 hr after infection, ED50
Type: in vivo

Molecule | ED50 (Enterococcus faecalis, 1 h) [mg/kg] | ED50 (S. faecalis 34358 (9 × LD50) i.p., antibiotic i.v. 1 hr post infection) [mg/kg] | ED50 (mice infected with 3.17 LD50's of S. faecalis (strain 9, Table 2), dosed once subcutaneously one hour after infection) [mg/kg]
CN[C@H](CC(C)C)C(=O)N[C@H]1C(=O)N[C@@H](CC(N)=O)C(=O)N[C@H]2C(=O)N[C@H]3C(=O)N[C@H](C(=O)N[C@H](C(=O)O)c4cc(O)cc(O)c4-c4cc3ccc4O)[C@H](O)c3ccc(c(Cl)c3)Oc3cc2cc(c3O[C@@H]2O[C@H](CO)[C@@H](O)[C@H](O)[C@H]2O[C@H]2C[C@](C)(N)[C@H](O)[C@H](C)O2)Oc2ccc(cc2Cl)[C@H]1O [Vancomycin, vancomycin] | 1.3 | – | –
teicoplanin | – | 1.7 | 1.3

Reference: patent publication US4742045A, “Glycopeptide antibiotics” (SmithKline Beckman Corporation, priority 1986, dated 1988)
